Experimental data: patent US20170369444A1, “INHIBITORS OF HISTONE DEMETHYLASES” (Gilead Sciences, Inc., priority 2014, published 2017)

Experiments:
Type in all cases: biochemical
KDM2B (FBXL10) = target: T1, KDM2B (FBXL10) (Homo sapiens, UniProt Q8NHM5); test: Histone lysine demethylase AlphaLISA assay, KDM2B; settings: in vitro enzyme, read-out: KDM2B IC50 (HDME Inhibition)
T1 construct: 1-650; purchased BPS Bioscience, US; host or cells: Bac (baculovirus/insect cells)
T1 sequence (Q8NHM5 1-650): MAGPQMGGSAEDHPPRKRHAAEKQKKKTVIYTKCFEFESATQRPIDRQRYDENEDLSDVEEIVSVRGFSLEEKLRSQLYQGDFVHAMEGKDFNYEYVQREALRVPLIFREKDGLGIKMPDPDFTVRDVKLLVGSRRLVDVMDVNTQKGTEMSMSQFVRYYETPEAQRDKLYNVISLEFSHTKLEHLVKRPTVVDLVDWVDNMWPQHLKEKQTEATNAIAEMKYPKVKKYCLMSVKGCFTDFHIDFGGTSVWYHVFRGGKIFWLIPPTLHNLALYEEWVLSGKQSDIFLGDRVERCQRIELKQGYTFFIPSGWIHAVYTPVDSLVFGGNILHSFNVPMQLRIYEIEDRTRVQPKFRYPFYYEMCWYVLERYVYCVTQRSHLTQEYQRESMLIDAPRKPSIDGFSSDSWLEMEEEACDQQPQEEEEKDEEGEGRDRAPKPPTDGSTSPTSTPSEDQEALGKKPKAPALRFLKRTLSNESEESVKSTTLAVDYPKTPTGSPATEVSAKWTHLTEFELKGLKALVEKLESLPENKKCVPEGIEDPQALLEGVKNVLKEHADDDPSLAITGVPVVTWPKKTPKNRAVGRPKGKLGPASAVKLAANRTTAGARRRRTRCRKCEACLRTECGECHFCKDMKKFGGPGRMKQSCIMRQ

KDM4C (JMJD2C) = target: T2, KDM4C (JMJD2C) (Homo sapiens, UniProt Q9H3R0); test: Histone lysine demethylase AlphaLISA assay, KDM4C; settings: in vitro enzyme, read-out: KDM4C IC50 (HDME Inhibition)
T2 construct: 1-349; host or cells: E. coli
T2 sequence (Q9H3R0 1-349): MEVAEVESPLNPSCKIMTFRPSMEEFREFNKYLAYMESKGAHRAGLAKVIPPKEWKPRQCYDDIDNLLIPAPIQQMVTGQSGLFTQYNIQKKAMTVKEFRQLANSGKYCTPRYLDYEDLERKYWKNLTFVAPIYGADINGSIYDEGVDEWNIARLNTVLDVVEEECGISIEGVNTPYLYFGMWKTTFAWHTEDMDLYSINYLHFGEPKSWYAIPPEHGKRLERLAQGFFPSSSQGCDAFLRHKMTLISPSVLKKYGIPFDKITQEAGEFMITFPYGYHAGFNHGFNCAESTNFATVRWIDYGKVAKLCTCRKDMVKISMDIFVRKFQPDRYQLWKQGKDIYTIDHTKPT
Experimental: Histone lysine demethylase AlphaLISA assays are performed to determine IC50 values. […] Assays are performed analogously to the protocol described by PerkinElmer (Roy et al. PerkinElmer Technical Note: AlphaLISA #12, April 2011).
Assays are performed analogously to the protocol described by PerkinElmer (Roy et al. PerkinElmer Technical Note: AlphaLISA #12, April 2011).
Enzymes (final assay concentration 0.1-2.5 nM) are dissolved in enzyme buffer and incubated for 10 min before 5 μL is added to 5 μL 3% DMSO solutions of compounds in enzyme buffer, incubated for another 10 minutes, before 5 μL substrate solution is added and the reaction mixture is incubated at room temperature. 10 μL acceptor beads, suspended Epigenetic Buffer (Perkin Elmer AL008) from stock, are added and the suspension is incubated in the dark at room temperature, before 10 μL suspension of streptavidin donor beads (Perkin Elmer 6760002) in Epigenetic Buffer is added. After incubation at room temperature in the dark the plates are read.
Substrate solution: Substrate (final assay concentration 50-200 nM), 50 mM Hepes (pH 7.4-8.0), 0.003% Tween-20, 0.1% BS, 25 μM L-Asc, 10 μM α-KG. Enzyme Buffer: 50 mM Hepes (pH 7.4-8.0), 0.003% Tween-20, 0.1% BSA; 5 μM (NH4)2Fe(SO4)2

KDM6A (UTX) = target: T3, KDM6A (UTX) (Homo sapiens, UniProt O15550); test: Histone lysine demethylase AlphaLISA assay, KDM6A; settings: in vitro enzyme, read-out: KDM6A IC50 (HDME Inhibition)
T3 construct: 919-1401; host or cells: E. coli

PHF8 (KDM7) = PHF8 (KDM7) (Homo sapiens, UniProt Q9UPP1); test: Histone lysine demethylase AlphaLISA assay, PHF8; settings: in vitro enzyme, read-out: PHF8 IC50 (HDME Inhibition)
KDM5B (PLU-1) = target: T4, KDM5B (PLU-1) (Homo sapiens, UniProt Q9UGL1); test: Histone lysine demethylase AlphaLISA assay, KDM5B; settings: in vitro enzyme, read-out: KDM5B IC50 (HDME Inhibition)
T4 construct: 1-809; host or cells: E. coli
T4 sequence (Q9UGL1 1-809): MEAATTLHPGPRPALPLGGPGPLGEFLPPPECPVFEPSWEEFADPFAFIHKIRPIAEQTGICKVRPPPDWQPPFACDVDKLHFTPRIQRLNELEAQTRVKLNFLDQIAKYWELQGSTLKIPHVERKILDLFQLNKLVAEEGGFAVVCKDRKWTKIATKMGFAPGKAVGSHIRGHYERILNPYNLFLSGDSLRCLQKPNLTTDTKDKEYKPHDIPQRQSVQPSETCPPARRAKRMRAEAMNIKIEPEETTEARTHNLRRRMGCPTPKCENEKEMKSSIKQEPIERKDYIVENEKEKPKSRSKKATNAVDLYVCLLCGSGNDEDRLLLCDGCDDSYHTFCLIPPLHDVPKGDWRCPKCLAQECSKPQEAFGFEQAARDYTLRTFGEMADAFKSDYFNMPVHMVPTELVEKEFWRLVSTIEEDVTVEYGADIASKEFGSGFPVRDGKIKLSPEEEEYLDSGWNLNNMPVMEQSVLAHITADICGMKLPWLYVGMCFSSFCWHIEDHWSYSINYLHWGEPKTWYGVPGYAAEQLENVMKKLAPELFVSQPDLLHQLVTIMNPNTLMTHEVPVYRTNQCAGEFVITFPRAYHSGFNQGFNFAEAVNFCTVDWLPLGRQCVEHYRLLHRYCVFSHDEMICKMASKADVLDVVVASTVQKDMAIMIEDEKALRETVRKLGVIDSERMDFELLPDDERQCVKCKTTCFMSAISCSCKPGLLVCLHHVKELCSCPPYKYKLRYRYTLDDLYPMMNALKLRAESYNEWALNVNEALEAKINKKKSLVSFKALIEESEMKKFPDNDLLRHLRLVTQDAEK

Sequence of PHF8 (KDM7) (Q9UPP1 whole entry): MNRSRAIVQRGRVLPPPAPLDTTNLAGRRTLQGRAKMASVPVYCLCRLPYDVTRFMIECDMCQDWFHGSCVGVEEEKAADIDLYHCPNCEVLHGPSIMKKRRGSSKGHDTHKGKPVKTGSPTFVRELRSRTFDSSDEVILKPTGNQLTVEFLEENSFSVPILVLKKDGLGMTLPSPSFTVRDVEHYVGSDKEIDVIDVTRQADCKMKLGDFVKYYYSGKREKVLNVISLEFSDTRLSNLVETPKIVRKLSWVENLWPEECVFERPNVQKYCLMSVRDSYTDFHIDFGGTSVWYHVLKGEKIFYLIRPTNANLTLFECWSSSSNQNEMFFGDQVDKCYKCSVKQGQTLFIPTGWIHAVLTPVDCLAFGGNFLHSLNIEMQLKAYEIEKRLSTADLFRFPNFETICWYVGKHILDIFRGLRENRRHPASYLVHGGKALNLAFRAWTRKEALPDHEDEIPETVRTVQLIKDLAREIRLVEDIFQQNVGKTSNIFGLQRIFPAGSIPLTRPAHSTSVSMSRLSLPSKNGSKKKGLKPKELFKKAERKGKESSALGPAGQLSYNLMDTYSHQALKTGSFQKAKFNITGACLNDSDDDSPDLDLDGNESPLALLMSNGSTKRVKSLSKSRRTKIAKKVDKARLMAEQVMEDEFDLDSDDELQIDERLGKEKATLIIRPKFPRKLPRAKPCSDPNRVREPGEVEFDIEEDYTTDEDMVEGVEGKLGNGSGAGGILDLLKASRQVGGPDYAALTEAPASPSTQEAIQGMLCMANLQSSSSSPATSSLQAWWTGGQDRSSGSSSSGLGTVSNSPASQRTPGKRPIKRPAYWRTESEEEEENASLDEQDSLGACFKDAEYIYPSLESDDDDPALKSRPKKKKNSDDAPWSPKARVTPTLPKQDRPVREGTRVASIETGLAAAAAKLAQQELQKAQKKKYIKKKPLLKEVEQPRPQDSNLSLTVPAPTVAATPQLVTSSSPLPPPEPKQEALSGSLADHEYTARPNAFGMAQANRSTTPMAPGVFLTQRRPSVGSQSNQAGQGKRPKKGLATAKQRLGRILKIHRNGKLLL
T3 sequence (O15550 919-1401): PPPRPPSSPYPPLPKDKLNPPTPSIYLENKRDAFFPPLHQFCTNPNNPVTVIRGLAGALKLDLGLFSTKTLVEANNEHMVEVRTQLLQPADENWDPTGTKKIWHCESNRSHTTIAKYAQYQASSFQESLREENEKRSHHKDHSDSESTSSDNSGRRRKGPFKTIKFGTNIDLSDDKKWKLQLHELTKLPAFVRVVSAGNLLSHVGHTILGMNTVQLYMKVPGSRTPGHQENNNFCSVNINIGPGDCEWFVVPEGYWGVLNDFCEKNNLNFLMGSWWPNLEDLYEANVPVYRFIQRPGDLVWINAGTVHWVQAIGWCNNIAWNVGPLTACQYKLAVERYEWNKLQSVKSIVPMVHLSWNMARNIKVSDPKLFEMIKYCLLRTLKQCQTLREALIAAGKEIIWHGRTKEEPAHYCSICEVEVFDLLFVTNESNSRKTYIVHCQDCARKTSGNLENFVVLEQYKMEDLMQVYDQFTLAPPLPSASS

| IC50 (KDM2B (FBXL10)) [µM] | IC50 (KDM4C (JMJD2C)) [µM] | IC50 (KDM6A (UTX)) [µM] | IC50 (PHF8 (KDM7)) [µM] | IC50 (KDM5B (PLU-1)) [µM] | SMILES |
| --- | --- | --- | --- | --- | --- |
| < 0.25 | < 0.25 | > 2.5 | 0.25 to 2.5 | < 0.25 | C[C@H](c1ccccc1)N1CCC[C@H](CNCc2cc(C(=O)O)ccn2)C1=O [Compound 2, 2-[({[(3R)-2-oxo-1-[(1R)-1-phenylethyl]piperidin-3-yl]methyl}amino)methyl]pyridine-4-carboxylic acid] |
| 0.25 to 2.5 | > 2.5 | – | 0.25 to 2.5 | – | COCC(=O)Nc1ccccc1CNC(=O)[C@H](CC(C)C)NCc1cc(C(=O)O)ccn1 [Compound 12, 2-({[(1S)-1-({[2-(2-methoxyacetamido)phenyl]methyl}carbamoyl)-3-methylbutyl]amino}methyl)pyridine-4-carboxylic acid] |
| 0.25 to 2.5 | 0.25 to 2.5 | > 2.5 | 0.25 to 2.5 | < 0.25 | C[C@H](c1ccccc1)N1CCC[C@@H](CNCc2cc(C(=O)O)ccn2)C1=O [Compound 14, 2-[({[(3S)-2-oxo-1-[(1R)-1-phenylethyl]piperidin-3-yl]methyl}amino)methyl]pyridine-4-carboxylic acid] |
| 0.25 to 2.5 | > 2.5 | > 2.5 | – | – | C[C@H](N[C@H](C)c1cc(C(=O)O)ccn1)C(=O)NCc1ccc(CO)cc1 [Compound 16, 2-[(1R)-1-{[(1S)-1-({[4-(hydroxymethyl)phenyl]methyl}carbamoyl)ethyl]amino}ethyl] pyridine-4-carboxylic acid] |
| < 0.25 | 0.25 to 2.5 | > 2.5 | 0.25 to 2.5 | < 0.25 | C[C@H](c1ccccc1)N1CC[C@@H](CNCc2cc(C(=O)O)ccn2)C1=O [Compound 17, 2-[({[(3S)-2-oxo-1-[(1R)-1-phenylethyl]pyrrolidin-3-yl]methyl}amino)methyl]pyridine-4-carboxylic acid] |
| > 2.5 | > 2.5 | – | > 2.5 | – | CCN(CC)C(=O)CCN(CC(N)=O)C(C)c1cc(C(=O)O)ccn1 (centres unmarked) [Compound 31, 2-{1-[(carbamoylmethyl)[2-(diethylcarbamoyl)ethyl]amino]ethyl}pyridine-4-carboxylic acid] |
| 0.25 to 2.5 | > 2.5 | – | > 2.5 | – | CCN(CC)C(=O)CCN(CCC(=O)N(CC)CC)Cc1cc(C(=O)O)ccn1 [Compound 32, 2-({bis[2-(diethylcarbamoyl)ethyl]amino}methyl)pyri-dine-4-carboxylic acid] |
| 0.25 to 2.5 | 0.25 to 2.5 | > 2.5 | 0.25 to 2.5 | < 0.25 | NC(=O)CCN(CC(=O)N1CCCCC1)Cc1cc(C(=O)O)ccn1 [Compound 34, 2-{[(2-carbamoylethyl)[2-oxo-2-(piperidin-1-yl)ethyl]amino]methyl} pyridine-4-carboxylic acid] |
| 0.25 to 2.5 | 0.25 to 2.5 | > 2.5 | 0.25 to 2.5 | – | O=C(O)c1cc(CNCC(=O)N2CCCCC2)ncn1 [Compound 35, 6-({[2-oxo-2-(piperidin-1-yl)ethyl]amino}methyl) pyrimidine-4-carboxylic acid] |
| 0.25 to 2.5 | > 2.5 | – | 0.25 to 2.5 | – | CCN(CC)C(=O)CC(C)NCc1cc(C(=O)O)ccn1 (centres unmarked) [Compound 43, 2-({[1-(diethylcarbamoyl)propan-2-yl]amino}methyl)pyri-dine-4-carboxylic acid] |
| 0.25 to 2.5 | > 2.5 | – | 0.25 to 2.5 | – | CCNC(=O)C[C@H]1CCN(Cc2cc(C(=O)O)ccn2)C1 [Compound 73, 2-{[(3R)-3-[(ethylcarbamoyl)methyl]pyrrolidin-1-yl]methyl}pyridine-4-carboxylic acid] |
| 0.25 to 2.5 | > 2.5 | > 2.5 | – | – | O=C(O)c1ccnc(CNCc2cn(Cc3ccc(F)cc3)c3ccc(F)cc23)c1 [Compound 86, 2-{[({5-fluoro-1-[(4-fluorophenyl)methyl]-1H-indol-3-yl}methyl)amino]methyl}pyridine-4-carboxylic acid] |
| < 0.25 | 0.25 to 2.5 | – | < 0.25 | – | C=CCc1cnc2c(c1)CCC2NCc1cc(C(=O)O)ccn1 (centres unmarked) [Compound 95, 2-({[3-(prop-2-en-1-yl)-5H,6H,7H-cyclopenta[b]pyridin-7-yl]amino}methyl)pyri-dine-4-carboxylic acid] |
| < 0.25 | 0.25 to 2.5 | > 2.5 | – | – | CC(C)c1ccnc2c1CCC2NCc1cc(C(=O)O)ccn1 (centres unmarked) [Compound 99, 2-({[4-(propan-2-yl)-5H,6H,7H-cyclopenta[b]pyridin-7-yl]amino}methyl)pyri-dine-4-carboxylic acid] |
| < 0.25 | 0.25 to 2.5 | – | – | < 0.25 | COc1ccnc2c1CCC2NCc1cc(C(=O)O)ccn1 (centres unmarked) [Compound 101, 2-[({4-methoxy-5H,6H,7H-cyclopenta[b]pyridin-7-yl}amino)methyl]pyri-dine-4-carboxylic acid] |
| < 0.25 | 0.25 to 2.5 | > 2.5 | < 0.25 | – | O=C(O)c1ccnc(CNC2CCc3cc(Br)cnc32)c1 (centres unmarked) [Compound 103, 2-[({3-bromo-5H,6H,7H-cyclopenta[b]pyridin-7-yl}amino)methyl]pyri-dine-4-carboxylic acid] |
| < 0.25 | < 0.25 | > 2.5 | – | – | CCN1CC[C@H](CNCc2cc(C(=O)O)ccn2)C1=O [Compound 106, 2-[({[(3R)-1-ethyl-2-oxopyrrolidin-3-yl]methyl}amino)methyl]pyridine-4-carboxylic acid] |

| SMILES | IC50 (KDM2B (FBXL10)) [µM] | IC50 (KDM4C (JMJD2C)) [µM] | IC50 (KDM6A (UTX)) [µM] | IC50 (PHF8 (KDM7)) [µM] | IC50 (KDM5B (PLU-1)) [µM] |
| --- | --- | --- | --- | --- | --- |
| CC(C)(C)OC(=O)NCCCC[C@@H](CO)NCc1cc(C(=O)O)ccn1 [Compound 22, 2-({[(2S)-6-{[(tert-butoxy)carbonyl]amino}-1-hydroxyhexan-2-yl]amino}methyl)pyri-dine-4-carboxylic acid] | < 0.25 | 0.25 to 2.5 | > 2.5 | – | < 0.25 |
